Blank lines part the entries; values can stand above or below the compound they belong to.
Assays:
[1] = Selectivity index, ratio of IC50 for inhibition of CYP1B1 (unknown origin) to IC50 for inhibition of CYP1A1 (unknown origin)
[2] = target: Cytochrome P450 1A1 (Homo sapiens, UniProt P04798); experiment: Inhibition of CYP1A1 (unknown origin) expressed in HEK293 cells; type: ADME, cell-based
[3] = tested on: SK-OV-3; experiment: Antiproliferative activity against human SK-OV-3 cells assessed as reduction in cell viability incubated for 48 hrs by MTT assay; type: functional, cell-based; settings: SK-OV-3, 48 h
[4] = tested on: A2780; experiment: Antiproliferative activity against human A2780 cells assessed as reduction in cell viability incubated for 48 hrs by MTT assay; type: functional, cell-based; settings: A2780, 48 h
[5] = tested on: A549; experiment: Cytotoxicity against human A549 cells assessed as reduction in cell growth incubated for 48 hrs by MTT assay; type: functional, cell-based; settings: A549, 48 h
[6] = tested on: MCF7; experiment: Cytotoxicity against human MCF7 cells assessed as reduction in cell viability; type: functional, cell-based
[7] = tested on: Calu-3; experiment: Cytotoxicity against human Calu-3 cells assessed as reduction in cell viability; type: functional, cell-based
[8] = tested on: A-375; experiment: Antiproliferative activity against human A-375 cells assessed as reduction in cell growth incubated for 48 hrs by MTT assay; type: functional, cell-based; settings: A-375, 48 h
[9] = tested on: MeWo; experiment: Antiproliferative activity against human MeWo cells assessed as reduction in cell growth incubated for 48 hrs by MTT assay; type: functional, cell-based
[10] = tested on: MCF7; experiment: Cytotoxicity against human MCF7 cells assessed as reduction in cell viability incubated for 48 hrs by MTT assay; type: functional, cell-based; settings: MCF7, 48 h
[11] = tested on: MCF7; experiment: Inhibition of colony formation in human MCF7 cells at 100 microM measured after 72 hrs by crystal violet staining based analysis relative to control; type: functional
[12] = tested on: HL-60; experiment: Cytotoxicity against human HL-60 cells assessed as reduction in cell growth incubated for 72 hrs by MTT assay; type: functional, cell-based; settings: HL-60, 72 h
[13] = tested on: PC-3; experiment: Cytotoxicity against human PC-3 cells assessed as reduction in cell growth incubated for 72 hrs by MTT assay; type: functional, cell-based; settings: PC-3, 72 h
[14] = tested on: HepG2; experiment: Cytotoxicity against human HepG2 cells assessed as reduction in cell growth incubated for 72 hrs by MTT assay; type: functional, cell-based; settings: HepG2, 72 h
[15] = tested on: SF-295; experiment: Cytotoxicity against human SF-295 cells assessed as reduction in cell growth incubated for 72 hrs by MTT assay; type: functional, cell-based; settings: SF-295, 72 h
[16] = tested on: HCT-116; experiment: Cytotoxicity against human HCT-116 cells assessed as reduction in cell growth incubated for 72 hrs by MTT assay; type: functional, cell-based; settings: HCT-116, 72 h
[17] = tested on: HeLa; experiment: Antiproliferative activity against human HeLa cells assessed as reduction in cell viability incubated for 72 hrs by MTT assay; type: functional, cell-based
[18] = tested on: HCT-116; experiment: Antiproliferative activity against human HCT-116 cells assessed as reduction in cell viability incubated for 24 hrs by MTT assay; type: functional, cell-based; settings: HCT-116, 24 h
[19] = tested on: SK-MEL-28; experiment: Cytotoxicity against human SK-MEL-28 cells assessed as reduction in cell growth incubated for 24 hrs by MTT assay; type: functional
[20] = tested on: MCF7; experiment: Cytotoxicity against human MCF7 cells assessed as reduction in cell growth incubated for 72 hrs by MTT assay; type: functional, cell-based; settings: MCF7, 72 h
[21] = tested on: KYSE-70 cell line; experiment: Cytotoxicity against human KYSE-70 cells assessed as reduction in cell viability incubated for 72 hrs by MTS assay; type: functional, cell-based; settings: KYSE-70, 72 h
[22] = tested on: KYSE-270; experiment: Cytotoxicity against human KYSE-270 cells assessed as reduction in cell viability incubated for 72 hrs by MTS assay; type: functional, cell-based; settings: KYSE-270, 72 h
[23] = tested on: HCT-116; experiment: Cytotoxicity against human HCT-116 cells assessed as reduction in cell viability incubated for 48 hrs by SRB assay; type: functional, cell-based; settings: HCT-116, 48 h
[24] = tested on: A549; experiment: Antiproliferative activity against human A549 cells assessed as reduction in cell viability measured for 48 hrs by WST-1 assay; type: functional, cell-based; settings: A549, 48 h
[25] = tested on: HT-29; experiment: Antiproliferative activity against human HT-29 cells assessed as reduction in cell viability measured for 48 hrs by WST-1 assay; type: functional, cell-based; settings: HT-29, 48 h
[26] = tested on: HeLa; experiment: Antiproliferative activity against human Hela cells assessed as reduction in cell viability measured for 48 hrs by WST-1 assay; type: functional, cell-based
[27] = tested on: MCF7; experiment: Antiproliferative activity against human MCF7 cells assessed as reduction in cell viability measured for 48 hrs by WST-1 assay; type: functional, cell-based; settings: MCF7, 48 h
[28] = tested on: MOLT-4; experiment: Antiproliferative activity against human MOLT-4 cells assessed as reduction in cell viability measured for 48 hrs by WST-1 assay; type: functional, cell-based; settings: MOLT-4, 48 h
[29] = tested on: HL-60; experiment: Growth inhibition of human HL-60 cells; type: functional
[30] = tested on: HepG2; experiment: Cytotoxicity against human HepG2 cells; type: functional, cell-based
[31] = tested on: MCF7; experiment: Cytotoxicity against human MCF7 cells; type: functional, cell-based
[32] = tested on: SK-BR-3; experiment: Antiproliferative activity against human SK-BR-3 cells assessed as reduction in cell viability incubated for 24 hrs by alamar blue assay; type: functional, cell-based; settings: SK-BR-3, 24 h

Sequence of Cytochrome P450 1A1 (P04798 whole entry): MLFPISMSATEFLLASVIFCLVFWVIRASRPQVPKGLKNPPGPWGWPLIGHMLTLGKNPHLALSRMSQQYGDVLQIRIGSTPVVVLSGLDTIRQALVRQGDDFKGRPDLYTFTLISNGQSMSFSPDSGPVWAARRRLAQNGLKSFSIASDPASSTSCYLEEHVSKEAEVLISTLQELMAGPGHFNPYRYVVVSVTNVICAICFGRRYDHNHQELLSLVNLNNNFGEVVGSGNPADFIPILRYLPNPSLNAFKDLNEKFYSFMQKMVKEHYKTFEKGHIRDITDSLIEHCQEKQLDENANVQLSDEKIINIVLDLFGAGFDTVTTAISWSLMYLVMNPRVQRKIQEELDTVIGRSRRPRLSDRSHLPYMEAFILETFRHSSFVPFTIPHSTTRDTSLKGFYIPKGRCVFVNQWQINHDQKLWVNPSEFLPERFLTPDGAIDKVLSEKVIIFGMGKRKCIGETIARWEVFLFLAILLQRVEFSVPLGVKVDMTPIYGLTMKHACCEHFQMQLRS

- Ratio IC50 [1]: 170
- IC50 [2]: 0.14 µM
Structure (SMILES): COc1c2occc2c(OC)c2c(=O)cc(-c3ccc(F)c(Br)c3)oc12

- IC50 [3]: 0.47 µM
- IC50 [4]: 0.87 µM
Structure (SMILES): CC1=C(O)C(=O)C=C2C1=CC=C1[C@@]2(C)CC[C@@]2(C)[C@@H]3C[C@](C)(C(=O)N4CCN(C(C)C)CC4)CC[C@]3(C)CC[C@]12C

Structure (SMILES): COc1ccc(CC(=O)OCC2=CC[C@@H]3[C@](C)(CO)[C@H](O)CC[C@@]3(C)[C@@H]2/C=C/C2=CCOC2=O)cc1
- IC50 [5]: 3.5 µM

Structure (SMILES): Cn1c2ccccc2c(=O)c2c(OCCCOc3cc4c(c5c3c(=O)c3ccccc3n5C)C=CC(C)(C)O4)cc3c(c21)C=CC(C)(C)O3
- IC50 [6]: 13.2 µM
- IC50 [7]: 4.49 µM

- IC50 [8]: 100 µM
Structure (SMILES): CC1(C)CC[C@]2(C(=O)N3CCOCC3)CC[C@]3(C)C(=CC[C@@H]4[C@@]5(C)CC/C(=N\OC(=O)CBr)C(C)(C)[C@@H]5CC[C@]43C)[C@@H]2C1
- IC50 [9]: 100 µM

Structure (SMILES): C/C=C/c1ccc(OCc2ccc(Cl)cc2)c(OC)c1
- IC50 [10]: 6.59 µM
- inhibition at 100 µM [11]: 87.5%

Structure (SMILES): CCC(=O)OCC(=O)[C@@]1(C)CC[C@H]2C(=C[C@@H]3OC(=O)[C@@]4(C)[C@@H]3[C@]23CC[C@]4(O)OC3)C1
- IC50 [12]: 3.14 µM
- IC50 [13]: 3.2 µM
- IC50 [14]: 13.5 µM
- IC50 [15]: 3.59 µM
- IC50 [16]: 3.62 µM

- IC50 [17]: 250 µM
Structure (SMILES): CCNC(=O)CC[C@H](NC(=O)c1cc2cc(Br)ccc2oc1=O)C(=O)OCC

- IC50 [18]: 0.48 µM
Structure (SMILES): CN1CCN(CCCOc2cc(-c3oc4cc(O)cc(O)c4c(=O)c3O)ccc2O)CC1

Structure (SMILES): CC(=O)OCC1=C2[C@@H](OC(C)=O)C[C@@](C)(OC(C)=O)C(=O)CC[C@@]3(C)O[C@@H]3[C@@]2(OC(C)=O)OC1=O
- CC50 [19]: 3.1 µM

Structure (SMILES): C[C@@H]1CC[C@H]2[C@@H](C)C(OC(=O)CCC(=O)O)O[C@@H]3O[C@@]4(C)CC[C@@H]1[C@]32OO4 (single isomer, unassigned)
- IC50 [20]: 43.8 µM

Structure (SMILES): CCCCCCCCCCCC(=O)O[C@H]1C(C)=C[C@]23C(=O)[C@@H](C=C(CO)[C@@H](O)[C@]12O)[C@H]1[C@@H](C[C@H]3C)C1(C)C
- IC50 [21]: 3.58 µM
- IC50 [22]: 1.88 µM

Structure (SMILES): C[C@H]1CC[C@@H]2[C@@H](OC(=O)[C@]23C[C@H]2CCCN2C32C(=O)c3ccccc3C2=O)[C@]2(C)C(=O)C=C[C@@]12O
- IC50 [23]: 5 µM

- IC50 [24]: 0.8 µM
- IC50 [25]: 1.4 µM
- IC50 [26]: 0.7 µM
- IC50 [27]: 0.6 µM
- IC50 [28]: 1.9 µM
Structure (SMILES): COc1c2c(cc3c1OCO3)[C@]13C=C[C@H](OC)C[C@H]1N(C2)C[C@H]3OC(=O)c1ccc(Cl)c([N+](=O)[O-])c1

- GI50 [29]: 2.64 µM
Structure (SMILES): COc1cc(/C=C/c2cc(/C=C/c3ccc(O)c(OC)c3)n(-c3c(Cl)cccc3Cl)c(=O)n2)ccc1O

Structure (SMILES): C/C(=N\NC(=O)c1ccc(O)cc1)c1ccc(NC(=O)Cn2c(=O)c3c(ncn3C)n(C)c2=O)cc1
- IC50 [30]: 0.22 µM
- IC50 [31]: 0.42 µM

- IC50 [32]: 6.3 µM
Structure (SMILES): COc1ccc2c(CCCc3ccc(Cl)cc3Cl)c3[n+](cc2c1OC)CCc1cc2c(cc1-3)OCO2

Reference: ChEMBL document CHEMBL6177938, “Semisynthetic phytochemicals in cancer treatment: a medicinal chemistry perspective” (RSC Med Chem, 2024)
